19 molecules from article PMC9583330, “Quinazoline-4(3H)-one-7-carboxamide Derivatives as Human Soluble Epoxide Hydrolase Inhibitors with Developable 5-Lipoxygenase Activating Protein Inhibition” (ACS Omega, 2022) can be followed below.

“And” between values parts separate entries of the source, which are not always exact repeats. Identical values can stand only once. A value given as a limit tells only on which side of the number the result lay.

Data set [1] relates to FLAP-mediated cellular LT formation in human neutrophils. Put plainly: FLAP-dependent 5-LO product formation in intact neutrophils. The class given is cell-based. The following applies: Neutrophil; for IC50: Homo sapiens, intact neutrophils challenged with 2.5 μM ionophore plus 20 μM arachidonic acid; for activity at 10 µM: 10 μM inhibitor, read-out: 5-LO product formation in neutrophils, remaining activity (% of control) at 10 μM; for activity at 10 µM / activity at 1 µM: human neutrophils, 2.5 μM Ca2+-ionophore A23187, means ± SEM, n = 4–5; for activity at 1 µM: 1 μM inhibitor, read-out: 5-LO product formation in neutrophils, remaining activity (% of control) at 1 μM. The procedure:
Neutrophils were isolated from leukocyte concentrates obtained from freshly withdrawn peripheral blood of healthy adult male and female donors which were provided by the Institute of Transfusion Medicine, University Hospital Jena, Germany. The experimental protocol was approved by the ethical committee of the University Hospital Jena, and all methods were performed in accordance with the relevant guidelines and regulations. The leukocyte concentrates were mixed with dextran (from Leuconostoc spp. MW ∼40,000, Sigma Aldrich) for sedimentation of erythrocytes, and the supernatant was centrifuged on lymphocyte separation medium (Histopaque-1077, Sigma Aldrich). Contaminating erythrocytes in the pelleted neutrophils were removed by hypotonic lysis using distilled water. The neutrophils were washed twice in ice-cold PBS pH 7.4 and finally resuspended in PBS pH 7.4 plus 1 mg/mL glucose (PGC buffer).
Human neutrophils [5 × 10^6; in PGC buffer; incubation volume, 1 mL] were preincubated with 0.1% DMSO (vehicle) or with the compounds at 37 °C for 15 min. […] Samples were then subjected to solid-phase extraction on C18-columns (100 mg, UCT, Bristol, PA), and 5-LO products (LTB4 and its trans-isomers, and 5-H(p)ETE) were extracted and analyzed in the presence of internal standard PGB1 by RP-HPLC and UV detection as reported elsewhere.[45]

A further data set deals with T1, Human recombinant sEH (Homo sapiens, UniProt P34913).
T1 construct: made in house; host or cells: Sf9 insect cells, recombinant baculovirus from Dr. B. Hammock
T1 sequence (P34913 1-555): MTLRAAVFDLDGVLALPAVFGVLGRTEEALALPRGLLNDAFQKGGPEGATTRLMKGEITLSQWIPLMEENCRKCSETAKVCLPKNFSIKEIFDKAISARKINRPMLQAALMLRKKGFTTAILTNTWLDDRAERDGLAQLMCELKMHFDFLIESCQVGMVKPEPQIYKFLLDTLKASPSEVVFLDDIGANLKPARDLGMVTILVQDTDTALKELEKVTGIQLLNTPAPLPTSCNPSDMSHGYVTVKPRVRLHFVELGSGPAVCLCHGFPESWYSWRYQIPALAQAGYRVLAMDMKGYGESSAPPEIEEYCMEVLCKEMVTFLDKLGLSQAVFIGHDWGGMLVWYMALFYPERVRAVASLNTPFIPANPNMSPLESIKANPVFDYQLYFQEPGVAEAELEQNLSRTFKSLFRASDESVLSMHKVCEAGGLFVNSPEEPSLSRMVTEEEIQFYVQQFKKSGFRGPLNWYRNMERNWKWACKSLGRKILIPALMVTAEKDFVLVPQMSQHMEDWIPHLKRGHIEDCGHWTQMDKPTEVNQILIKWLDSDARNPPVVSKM
Put plainly: sEH cell-free fluorescence-based assay (PHOME substrate). The following applies: means ± SEM, n = 3; for IC50: cell-free assay, human sEH; for remaining activity at 10 µM: residual activity at 10 μM, control = vehicle 100%. The format is biochemical. The procedure: Human recombinant sEH was expressed and purified as reported before.[46] In brief, Sf9 cells were infected with a recombinant baculovirus (kindly provided by Dr. B. Hammock, University of California, Davis, CA). Seventy-two hours post-transfection, cells were pelleted and sonicated (3 × 10 s at 4 °C) in lysis buffer containing NaHPO4 (50 mM, pH 8), NaCl (300 mM), glycerol (10%), EDTA (1 mM), phenylmethanesulfonyl fluoride (1 mM), leupeptin (10 μg/mL), and a soybean trypsin inhibitor (60 μg/mL). Supernatants after centrifugation at 100,000 × g (60 min, 4 °C) were subjected to benzylthio-sepharose-affinity chromatography in order to purify sEH by elution with 4-fluorochalcone oxide in PBS containing 1 mM DTT and 1 mM EDTA. Dialyzed and concentrated (Millipore Amicon-Ultra-15 centrifugal filter) enzyme solution was assayed for total protein with a Bio-Rad protein detection kit (Bio-Rad Laboratories, Munich, Germany), and the epoxide hydrolase activity was determined by using a fluorescence-based assay as described before.[47] Shortly, sEH was diluted in Tris buffer (25 mM, pH 7) supplemented with BSA (0.1 mg/mL) to an appropriate enzyme concentration and preincubated with test compounds or vehicle (0.1% DMSO) for 10 min at room temperature (RT). The reaction was started by the addition of 50 μM 3-phenyl-cyano(6-methoxy-2-naphthalenyl)methyl ester-2-oxiraneacetic acid (PHOME), a nonfluorescent compound that is enzymatically converted into fluorescent 6-methoxy-naphtaldehyde at RT. After 60 min, reactions were stopped by ZnSO4 (200 mM) and fluorescence was detected (λem 465 nm, λex 330 nm) using a NOVOstar microplate reader (BMG Labtech GmbH, Ortenberg, Germany), and potential fluorescence of test compounds was subtracted from the read-out, if required.

With `O=C(O)c1ccc2c(=O)n(-c3ccccc3)c(SCc3ccccc3Cl)nc2c1` [Compound 10, 2-((2-Chlorobenzyl)thio)-4-oxo-3-phenyl-3,4-dihydroquinazoline-7-carboxylic Acid], the melting point (usually the temperature, or range, at which the solid turns liquid) was in the range of 277.8 to 279.8 °C. Moreover, in data set [1], the IC50 – broadly, the midpoint of a concentration-inhibition curve – stood at 2.1 ± 0.4 µM and the activity at 10 µM came to 1.3 ± 0.3%.

The molecule `CC(C)CNC(=O)c1ccc2c(=O)n(-c3ccccc3)c(SCc3ccccc3Cl)nc2c1` [Compound 12, N-Isobutyl-4-oxo-3-phenyl-2-((2-chlorobenzyl)thio)-3,4-dihydroquinazoline-7-carboxamide] returned a melting point of 230.8 to 232.7 °C. Moreover, the half-maximal inhibitory concentration (IC50) at Human recombinant sEH came to 7.4 ± 2.8 µM.

Molecule `CC(C)NC(=O)c1ccc2c(=O)n(-c3ccccc3)c(SCc3ccc(C(F)(F)F)cc3)nc2c1` [Compound 13, N-Isopropyl-4-oxo-3-phenyl-2-((4-(trifluoromethyl)benzyl)thio)-3,4-dihydroquinazoline-7-carboxamide] yielded a melting point of 212.5 to 213.3 °C. At Human recombinant sEH, the IC50 is roughly 10 µM and the remaining activity (commonly the signal under treatment as a percentage of the control signal) at 10 µM was determined as 58.3%.

The molecule `CC(C)CNC(=O)c1ccc2c(=O)n(-c3ccccc3)c(SCc3ccc(C(F)(F)F)cc3)nc2c1` [Compound 14, N-Isobutyl-4-oxo-3-phenyl-2-((4-(trifluoromethyl)benzyl)thio)-3,4-dihydroquinazoline-7-carboxamide] had a melting point of 214.7 to 216.6 °C. For the same molecule, the IC50 on Human recombinant sEH was 4.5 ± 0.7 µM.

`COC(=O)c1cccc(CSc2nc3cc(C(=O)NCC(C)(C)C)ccc3c(=O)[nH]2)c1` [Compound 20, Methyl 3-(((7-(neopentylcarbamoyl)-4-oxo-3,4-dihydroquinazolin-2-yl)thio)methyl)benzoate]: the melting point lay within 269.6 to 271.4 °C. Also, at Human recombinant sEH, the IC50 is greater than 10 µM and the remaining activity at 10 µM came out at 94.3%.

Turning to `CC(C)(C)CNC(=O)c1ccc2c(=O)[nH]c(SCc3cccc(C(=O)O)c3)nc2c1` [Compound 21, 3-(((7-(Neopentylcarbamoyl)-4-oxo-3,4-dihydroquinazolin-2-yl)thio)methyl)benzoic Acid], the melting point lay in the range of 250.6 to 252.6 °C. Moreover, at Human recombinant sEH, the 50% inhibitory concentration (IC50) is roughly 10 µM and the remaining activity at 10 µM was determined as 51.9%.

On to `O=C(O)c1ccc2c(=O)[nH]c(SCc3ccccc3Cl)nc2c1` [Compound 22], for which the melting point is 280 °C (dec.). Also, in data set [1], the half-inhibitory concentration (IC50) was roughly 10 µM, the activity at 1 µM worked out at 102 ± 5.4% and the activity at 10 µM turned out to be 50.3 ± 15.5%.

Take `CC(C)(C)CNC(=O)c1ccc2c(=O)[nH]c(SCc3ccccc3Cl)nc2c1` [Compound 34, 2-((2-Chlorobenzyl)thio)-N-neopentyl-4-oxo-3,4-dihydroquinazoline-7-carboxamide]: the melting point lay in the range of 238.4 to 239.8 °C. For the same molecule, the concentration for half-maximal inhibition (IC50) on Human recombinant sEH was 0.66 µM and 0.7 µM. In data set [1], the IC50 was 2.91 µM, the activity at 1 µM amounted to 84.5 ± 4.5% and the activity at 10 µM is 4.5 ± 1.2%.

Turning to `CC(C)(C)CNC(=O)c1ccc2c(=O)[nH]c(SCc3cccc(Cl)c3)nc2c1` [Compound 35, 2-((3-Chlorobenzyl)thio)-N-neopentyl-4-oxo-3,4-dihydroquinazoline-7-carboxamide], the melting point was 217.1 to 218.4 °C. For the same molecule, at Human recombinant sEH, the half-maximal inhibitory concentration (IC50) is 0.3 ± 0.05 µM. Also, in data set [1], the IC50 is greater than 10 µM, the activity at 1 µM is 93.5 ± 11.4% and the activity at 10 µM came to 62.1 ± 12.2%.

`CC(C)(C)CNC(=O)c1ccc2c(=O)[nH]c(SCc3ccccc3F)nc2c1` [Compound 39, 2-((2-Fluorobenzyl)thio)-N-neopentyl-4-oxo-3,4-dihydroquinazoline-7-carboxamide] came in with a melting point of 210.3 to 212.2 °C. Also, the IC50 on Human recombinant sEH was determined as 1.3 ± 0.1 µM.

For the molecule `CC(C)(C)CNC(=O)c1ccc2c(=O)[nH]c(SCc3ccccc3C#N)nc2c1` [Compound 40, 2-((2-Cyanobenzyl)thio)-N-neopentyl-4-oxo-3,4-dihydroquinazoline-7-carboxamide], the melting point fell in the range of 190.3 to 192.2 °C. Further, the 50% inhibitory concentration (IC50) at Human recombinant sEH worked out at 2.4 ± 0.3 µM.

`Cc1ccccc1CSc1nc2cc(C(=O)NCC(C)(C)C)ccc2c(=O)[nH]1` [Compound 41, 2-((2-Methylbenzyl)thio)-N-neopentyl-4-oxo-3,4-dihydroquinazoline-7-carboxamide] yielded a melting point of 207.4 to 209.4 °C. In addition, on Human recombinant sEH, the IC50 worked out at 1.2 ± 0.1 µM.

`COc1ccccc1CSc1nc2cc(C(=O)NCC(C)(C)C)ccc2c(=O)[nH]1` [Compound 42, 2-((2-Methoxybenzyl)thio)-N-neopentyl-4-oxo-3,4-dihydroquinazoline-7-carboxamide]: the melting point fell in the range of 230.2 to 232.1 °C. Moreover, at Human recombinant sEH, the IC50 was 3.9 ± 2 µM.

Molecule `CC(C)(C)CNC(=O)c1ccc2c(=O)[nH]c(SCc3ccccc3OC(F)(F)F)nc2c1` [Compound 43, 2-((2-(Trifluoromethoxy)benzyl)thio)-N-neopentyl-4-oxo-3,4-dihydroquinazoline-7-carboxamide] had a melting point of 220.9 to 221.9 °C. The IC50 on Human recombinant sEH was 0.4 ± 0.1 µM.

Molecule `Cc1ncccc1CSc1nc2cc(C(=O)NCC(C)(C)C)ccc2c(=O)[nH]1` [Compound 44, 2-(((2-Methylpyridin-3-yl)methyl)thio)-N-neopentyl-4-oxo-3,4-dihydroquinazoline-7-carboxamide] registered a melting point of 202.3 to 203.8 °C. For the same molecule, at Human recombinant sEH, the concentration for half-maximal inhibition (IC50) was 11 µM and 11.2 µM.

In turn, `CC(C)CNC(=O)c1ccc2c(=O)[nH]c(SCc3ccc(C(F)(F)F)cc3)nc2c1` [Compound 46, 2-((4-(Trifluoromethyl)benzyl)thio)-N-isobutyl-4-oxo-3,4-dihydroquinazoline-7-carboxamide] yielded a melting point of 262.8 to 264.6 °C. Also, the 50% inhibitory concentration (IC50) at Human recombinant sEH was determined as 1.5 ± 0.2 µM.

Regarding `O=C(c1ccc2c(=O)[nH]c(SCc3ccccc3Cl)nc2c1)N1CCNCC1` [Compound 48, 2-((2-Chlorobenzyl)thio)-7-(piperazine-1-carbonyl)quinazolin-4(3H)-one], the melting point is 159.9 to 162 °C. Also, on Human recombinant sEH, the IC50 is greater than 10 µM and the remaining activity at 10 µM worked out at 105%.

With `O=C(c1ccc2c(=O)[nH]c(SCc3ccccc3Cl)nc2c1)N1CCCCC1` [Compound 49], the melting point is 175.6 to 177.2 °C. Moreover, on Human recombinant sEH, the IC50 was greater than 10 µM and the remaining activity at 10 µM worked out at 58.5%.

The molecule `O=C(c1ccc2c(=O)[nH]c(SCc3ccccc3Cl)nc2c1)N1CCOCC1` [Compound 50, 2-((2-Chlorobenzyl)thio)-7-(morpholine-4-carbonyl)quinazolin-4(3H)-one] yielded a melting point of 198.6 to 200.4 °C. In addition, on Human recombinant sEH, the IC50 was greater than 10 µM and the remaining activity at 10 µM came out at 77.7%.
